In patent US20220323427A1, “SOMATOSTATIN RECEPTOR TYPE 5 AGONIST FOR THE TREATMENT OF HYPERINSULINISM” (Crinetics Pharmaceuticals, Inc., priority 2021, published 2022):

Experiments:
[1] = tested on: glucose stimulated insulin secretion; experiment: Intravenous glucose tolerance test (IVGTT), SAD; format: in vivo, human
Description: The results from the IVGTT will help inform selection of the single dose that will be used in SAD 1b and SAD 1c and also to inform the doses used in the MAD.
A summary of the procedure is as follows: Collect pre-IV bolus blood samples for measurement of PG, insulin, and C-peptide. At 1 hour after study drug dosing/Time 60 (±30 minutes) or nominal time, administer an IV bolus of glucose at 300 mg/kg in 20% solution, within 60 seconds (use the most recent body weight measurement for glucose dose). Collect post-IV bolus blood samples for measurement of PG, insulin, and C-peptide.

[2] = tested on: incretin-induced insulin secretion; experiment: Mixed meal tolerance test (MMTT), MAD; format: in vivo, human; settings: Day 6
Description: An MMTT will be conducted during the MAD study to assess the impact of Compound 1 on incretin-induced insulin secretion. This will be conducted at baseline (before study drug dosing) in the MAD and at Day 6 at which Compound 1 is predicted to be at steady state.
The purpose of the MMTT is to evaluate the effect of Compound 1 on plasma insulin in response to multiple fuel sources (protein, fat) and to evaluate the impact on incretin-induced insulin secretion. Subjects are to fast at least 10 hours overnight until ingestion of the mixed meal (which is to occur approximately 4 hours after study drug dosing), and then restrict further food intake until the end of the MMTT.
Start the MMTT (i.e., drink the mixed meal) on Day −1 and Day 6 at 4 hours (±30 minutes) post-study drug dosing (i.e., Time 240 minutes) or at nominal time. The total duration of the MMTT will be approximately 3.5 hours from when the first pre-drink blood sample is collected until the last MMTT blood sample is collected. The subject is to be in the supine position during the MMTT, except while consuming the mixed meal. The procedure will be as follows:
Collect pre-drink fasting blood samples for measurement of PG, insulin, C-peptide, glucagon, GIP, and GLP-1 at the timepoints specified in (SOA).
At 4 hours after study drug dosing/Time 240 minutes (or nominal time), the subject is to drink 400 mL (2×200-mL bottles) Resource® Energy (Nestlé Health Science) drink (mixed meal) within ≤10 minutes.
Collect post-drink blood samples for measurement of PG, insulin, C-peptide, glucagon, and GLP-1 at the timepoints specified in (SOA). The subject is to not eat or drink (except for water) until the last MMTT blood sample is collected.

[3] = single oral dose prior to IV glucose

C[C@H](NC(=O)c1cnc(C#N)c(-c2cc(F)cc(F)c2)c1N1CC[C@H](N)C1)C(F)(F)F [Compound 1, 4-[(3S)-3-aminopyrrolidin-1-yl]-6-cyano-5-(3,5-difluorophenyl)-N-[(2S)-1,1,1-trifluoropropan-2-yl]pyridine-3-carboxamide]
% reduction in insulin AUC ([1]; 27 mg dose): about 22% | % reduction in insulin AUC ([1]; 60 mg dose): about 40% | % reduction in insulin AUC ([1]; 120 mg dose): about 47% | Insulin secretion in IVGTT [1, 3]: dose-dependently suppressed insulin secretion | Plasma glucose in IVGTT [1, 3]: rapid and sustained increase in plasma glucose levels | Increase in plasma glucose AUC in MMTT ([2]; 30 mg QD): ~30% | Increase in plasma glucose AUC in MMTT ([2]; 60 mg QD): ~30% | Increase in plasma glucose AUC in MMTT ([2]; 120 mg QD): ~60% | Insulin and C-peptide in MMTT ([2]; 30-120 mg QD): more sustained suppression of insulin and C-peptide with increasing dose
